Test results reported in US4798807A, “Monoclonal antibodies and method for detecting dioxins and dibenzofurans” (priority 1986, dated 1989).
Entries after “also recorded” stand apart in the source; their conditions may differ.

Tests used:
monoclonal antibody DD-1 = experiment: Competition ELISA with monoclonal antibody DD-1; format: binding, Biozzi mice; conditions: for I50 (inhibits antibody binding by 50%): competitor vs monoclonal antibody DD-1, plate coated with A-triCDD-RSA
Method: (§1) In this case the hybridomas were then screened for their ability to distinguish A-triCDD-BSA and A-triCDD-RSA from BSA and RSA. On the basis of this initial screen about 25 stable, antibody-producing colonies were isolated, subcloned, and frozen. The remaining clones were again screened for their abilities to recognize free TCDD in suspension. Experimentally, on the order of 10-100 nanograms of TCDD in hexane was dried, 0.5 ml of saline with BSA (1 mg/ml) was added and sonificated for 2 hrs. […] Identical procedures were followed for other dioxin isomers. A dilution series in microtiter plate wells was then made with the suspended TCDD, antibody adde, and the competition ELISA completed. Competition ELISA test procedures are discussed in detail in the following reference: Butt, W. R. (1984) "Practical Immunoassay: The State of the Art", Marcel Dekker, Inc., N.Y., N.Y.
(§2) A large part of the success that we have had in characterizing the binding specificities of our monoclonal antibodies comes from having developed a reliable competition ELISA protocol. Our preferred assay starts from stock solutions at 10 ppm in hexane of the various compounds listed in Table I. 10 μl of hexane solution is aliquoted into a small vial, evaporated under a stream of nitrogen gas, and 500 μl of a 1 mg/ml solution of BSA in phosphate buffered saline with 0.1% BSA is added. The vial is capped and placed in an ultrasonic cleaning waterbath for two hours. Two hours of sonification gives a more reproducible assay than does an hour. During the sonification, the hexane appears to evaporate completely, and one is left with an aqueous solution containing the dioxin. Microtiter plates coated with A-triCDD-RSA are blocked with a three percent solution of ovalbumin and a two-fold dilution series of sonificated dioxin-BSA is then made, covering the range 100 ppb-0.1 ppb. In each well of the plate 100 μl of the sonificated dioxin-BSA solution is mixed with n equal volume of antibody. The antibody partitions between the dioxin adsorbed to the BSA, and the A-tri-CDD-RSA on the plate.
(§3) A-TriCDD-RSA was adsorbed onto the surface of the wells of a microtiter plate. The various competitors listed were suspended in saline containing bovine serum albumin (BSA). These solutions were made by sonificating 10 μl of dioxin solution in hexane with 500 μl of saline-BSA. A dilution series of these dioxin-BSA solutions was then made covering the range of 100-0.2 ppb, and placed in the microtiter plate wells. An equal volume of DD-1 monoclonal antibody was then added, and allowed to react for 1 hour. Tne antibody binds either to the A-TriCDD-RSA on the plate or the dioxin in solution. After the hour, the solution phase is removed, the plate washed, and it is reincubated for an hour with peroxidase-conjugated goat-anti-mouse-immunoglobulins. A second washing is then done, and substrate (ABTS) added to the peroxidase. The enzyme-antibody conjugate and substrate function as a "developer", allowing the visualization of the DD-1 bound to the A-triCDD-RSA on the plate. Results are then expressed as a fraction of the response in wells with no competitor. […] At about 20 ppb of 2,3,7,8-TCDD the relative ELISA response is half of control, meaning that half the DD-1 antibody bound to the solution phase dioxin and half bound to the A-triCDD-RSA on the plate. For 1,2,3,7(8)-TCDD, 50% inhibition occurs at about 4 ppb, indicating the DD-1 prefers 1,2,3,7(8)-TCDD to 2,3,7,8-TCDD.
(§4) The FIGURE and Table II show representative competition data using several chlorinated compounds as competitors. From such data, one can determine the concentration required to inhibit antibody binding by 50% (I50). Table II lists the I50 for all compounds tested with the antibodies. In reporting these values, factors of two are about the limit of significance. […] The binding specificities of these antibodies are highly desirable, since they prefer the most toxic of the dioxin and dibenzofuran isomers.

monoclonal antibody DD-3 = experiment: Competition ELISA with monoclonal antibody DD-3; format: binding, BALB/c mice; conditions: competitor vs monoclonal antibody DD-3; plate coated with A-triCDD-RSA
Method: as §1, §2, §3, §4

monoclonal antibody DD-4 = experiment: Competition ELISA with monoclonal antibody DD-4; format: binding, BALB/c mice; conditions: competitor vs monoclonal antibody DD-4; plate coated with A-triCDD-RSA
Method: as §1, §2, §3, §4

monoclonal antibody DD-5 = experiment: Competition ELISA with monoclonal antibody DD-5; format: binding, Biozzi mice; conditions: competitor vs monoclonal antibody DD-5; plate coated with A-triCDD-RSA
Method: as §1, §2, §3, §4

monoclonal antibody DD-6 = experiment: Competition ELISA with monoclonal antibody DD-6; format: binding, Biozzi mice; conditions: competitor vs monoclonal antibody DD-6; plate coated with A-triCDD-RSA
Method: as §1, §2, §3, §4

[1] = system: monoclonal antibodies DD-1, DD-3, DD-4, DD-5 and DD-6; experiment: Competition ELISA, statements for all antibodies together; format: binding, BALB/c and Biozzi mice; conditions: for reactivity of all antibodies with competitor: up to the highest concentration tested (100 ppb)
Method: as §1, §2, §3, §4

Compound | reaction of DD-1 with competitor (monoclonal antibody DD-1; FIGURE, DD-1, 100-0.2 ppb) | I50 (inhibits antibody binding by 50%) (monoclonal antibody DD-1) | I50 (inhibits antibody binding by 50%) (monoclonal antibody DD-3) | I50 (inhibits antibody binding by 50%) (monoclonal antibody DD-4) | I50 (inhibits antibody binding by 50%) (monoclonal antibody DD-5) | I50 (inhibits antibody binding by 50%) (monoclonal antibody DD-6) | reactivity of all antibodies with competitor [1] | affinity / recognition by all antibodies [1] | concentration at which 50% inhibition occurs (relative ELISA response half of control) (monoclonal antibody DD-1; FIGURE, DD-1, competitor in saline-BSA, dilution series 100-0.2 ppb)
Clc1c(Cl)c(Cl)c2c(c1Cl)Oc1c(Cl)c(Cl)c(Cl)c(Cl)c1O2 [Octachloro-DD, octachlorodibenzodioxin] | does not react | > 200 ng | > 200 ng | > 200 ng | > 10 ng | > 200 ng | either do not react or react only marginally | – | –
Clc1c(Cl)c(Cl)c2c(oc3c(Cl)c(Cl)c(Cl)c(Cl)c32)c1Cl [Octachloro-DBF] | – | > 200 ng | > 200 ng | > 200 ng | > 10 ng | > 200 ng | either do not react or react only marginally | – | –
Clc1ccc2oc3c(Cl)c(Cl)c(Cl)c(Cl)c3c2c1Cl [1,2,3,4,8,9-Hexa-CDBF] | – | > 200 ng | > 200 ng | > 200 ng | > 10 ng | > 150 ng | either do not react or react only marginally | – | –
Clc1cc2oc3cc(Cl)c(Cl)cc3c2cc1Cl [2,3,7,8-TCDBF] | – | 0.65 ng | 0.9 ng | 5 ng | 1 ng | 0.5 ng | – | slightly less affinity | –
Clc1cc2c(cc1Cl)Oc1cc(Cl)c(Cl)cc1O2 [2,3,7,8-TCDD, 2,3,7,8-tetrachlorodibenzo-p-dioxin] | – | 1 ng | 3 ng | 5 ng | 0.5 ng | 6 ng | – | slightly less affinity; also recorded: recognize | about 20 ppb
